Where a name gives a salt, the structure may show the parent alone. Read-outs that look alike come from different tables or passages of the source.

Results on 31 compounds are retold here after patent US20120020915A1, “Compounds and Methods for Treating Cancer and Diseases of the Central Nervous System” (QUEENS UNIVERSITY AT KINGSTON, priority 2007, published 2012).

In assay [1] the target is T1, HO-1 (rat spleen) (Rattus norvegicus, UniProt P06762).
T1 construct: Spleen microsomes were used as a source of HO-1; from tissue; host or cells: spleen microsomal fraction of adult male Sprague-Dawley rats
T1 sequence (P06762 1-289): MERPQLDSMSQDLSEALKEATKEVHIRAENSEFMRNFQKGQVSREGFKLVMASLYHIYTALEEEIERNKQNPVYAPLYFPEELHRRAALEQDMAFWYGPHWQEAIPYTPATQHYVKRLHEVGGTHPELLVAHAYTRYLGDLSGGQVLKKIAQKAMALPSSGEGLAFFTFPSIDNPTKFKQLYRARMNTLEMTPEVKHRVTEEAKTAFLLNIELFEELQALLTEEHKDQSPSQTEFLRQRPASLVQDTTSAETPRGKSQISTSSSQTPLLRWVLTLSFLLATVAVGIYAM
The assay is described as follows: HO enzymatic activity, rat spleen microsomal fraction (CO formation from methemalbumin). Format: biochemical. How it is done: (§1) Incubations for HO activity analysis were done under conditions for which the rate of CO formation (pmol CO×min^−1×mg protein^−1) was linear with respect to time and microsomal protein concentration. Briefly, reaction mixtures (150 μL) consisting of 100 mM phosphate buffer (pH 7.4), 50 μM methemalbumin, and 1 mg/mL protein were pre-incubated with the inhibitors at final concentrations ranging from 0.1-100 μM for 10 minutes at 37° C. Reactions were initiated by adding NADPH at a final concentration of 1 mM and incubations were performed for an additional 15 minutes at 37° C.
(§2) Incubations for HO activity analysis were done under conditions for which the rate of CO formation (pmol CO/mg protein/minute) was linear with respect to time and microsomal protein concentration. Briefly, reaction mixtures (150 μL) consisting of 100 mM phosphate buffer (pH 7.4), 50 μM methemalbumin and 1 mg/mL protein were pre-incubated with the vehicle (ethanol or water in which the inhibitors were dissolved), or inhibitors at final concentrations ranging from 0.1-1000 μM for 10 minutes at 37° C. Reactions were initiated by adding β-NADPH at a final concentration of 1 mM and incubations were carried out for an additional 15 minutes at 37° C. Reactions were stopped by instantly freezing the reaction mixture on pulverized dry ice and CO formation was measured by gas chromatography using a TA 3000R Process Gas Analyzer (Trace Analytical/Ametek, Newark, Del., USA).
(§3) The values on the abscissa represent the decimal logarithm of the inhibitor's concentration (in μM), whereas the values of the activity on the ordinate are expressed as a percentage of the control experiments without inhibitor.
(§4) The IC50 values for the replicate experiments were employed to generate the reported standard deviation value.

The target of assay [2] is T2, HO-2 (rat brain) (Rattus norvegicus, UniProt P23711).
T2 construct: brain microsomes were used as a source of HO-2; from tissue; host or cells: brain microsomal fraction of adult male Sprague-Dawley rats
T2 sequence (P23711 1-315): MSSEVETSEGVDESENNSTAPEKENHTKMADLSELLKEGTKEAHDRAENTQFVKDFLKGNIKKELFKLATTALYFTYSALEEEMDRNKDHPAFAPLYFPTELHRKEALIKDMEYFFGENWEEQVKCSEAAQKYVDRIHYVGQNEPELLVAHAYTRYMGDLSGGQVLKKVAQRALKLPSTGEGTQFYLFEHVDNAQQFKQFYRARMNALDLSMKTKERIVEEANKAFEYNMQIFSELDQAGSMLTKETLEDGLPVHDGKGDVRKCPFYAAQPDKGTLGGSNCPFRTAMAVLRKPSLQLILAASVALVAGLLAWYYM
The assay is described as follows: HO enzymatic activity, rat brain microsomal fraction (CO formation from methemalbumin). Format: biochemical. The protocol:
as §1, §2, §3, §4

Where [3] appears, read: CO formation from methemalbumin, mean ± SD of replicate experiments, read-out: IC50 HO-1 (rat spleen/μM).
The mark [4] stands for this setting: CO formation from methemalbumin, mean ± SD of replicate experiments, read-out: IC50 HO-2 (rat brain)/μM).
Where [5] appears, read: IC50 HO-1 (rat spleen/μM), average ± SD of replicate experiments.
The mark [6] stands for this setting: IC50 HO-2 (rat brain)/μM), average ± SD of replicate experiments.
Setting [7] is: IC50 HO-1 (rat spleen/μM), CO formation from methemalbumin, mean ± SD of replicate experiments.
Where [8] appears, read: IC50 HO-2 (rat brain)/μM), CO formation from methemalbumin, mean ± SD of replicate experiments.
Where [9] appears, read: average ± SD of replicate experiments, read-out: IC50 HO-1 (rat spleen/μM).
The mark [10] stands for this setting: average ± SD of replicate experiments, read-out: IC50 HO-2 (rat brain)/μM).

Take `COc1ccc(OC[C@H]2CO[C@](CCc3ccc(Cl)cc3)(Cn3ccnc3)O2)cc1` [QC-8, (2S,4S)-2-[2-(4-chlorophenyl)ethyl]-2-[(1H-imidazol-1-yl)methyl]-4-[(4-methoxyphenyloxy)methyl]-1,3-dioxolane hydrochloride]: the IC50 was found to be 28 ± 15 µM in assay [1] (setting [3]) and 29 ± 6 µM in assay [2] (setting [4]).
Turning to `O=C(Cn1ccnc1)c1ccc(Br)cc1` [QC-161, 1-(4-Bromophenyl)-2-imidazol-1-yl-ethanone hydrochloride], the IC50 in assay [1] (setting [5]) was 3.2 ± 0.8 µM; in assay [2] (setting [6]), 14 ± 2 µM.
As to `O=C(CCn1ccnc1)c1ccccc1O` [QC-75, 1-(2-hydroxyphenyl)-3-imidazol-1-yl-propan-1-one], the results for the IC50 in assay [1] (setting [7]) and in assay [2] (setting [8]) were 25 ± 12 µM and more than 100 µM, respectively.
As to `O=C(CCc1ccc(Br)cc1)Cn1cnc2ccccc21` [QC-62, 4-(4-bromophenyl)-1-(1H-benzimidazol-1-yl)butan-2-one hydrochloride], the IC50 in assay [1] (setting [7]) and in assay [2] (setting [8]) was more than 100 µM each time.
Take `CCCC(=O)n1ccnc1` [QC-100, N-butyrylimidazole]: the IC50 in assay [1] (setting [3]) and in assay [2] (setting [4]) was more than 100 µM throughout.
As to `O=C(Cn1ccnc1)c1ccc(Cl)cc1` [QC-142, 1-(4-Chlorophenyl)-2-imidazol-1-yl-ethanone hydrochloride], the IC50 turned out to be 4 ± 2 µM in assay [1] (setting [5]) and 20 ± 8 µM in assay [2] (setting [6]).
Consider `Nc1cccc(SC[C@@H]2CO[C@](CCc3ccc(Cl)cc3)(Cn3ccnc3)O2)c1` [QC-7, (2S,4S)-2-[2-(4-chlorophenyl)ethyl]-2-[(1H-imidazol-1-yl)methyl]-4-[{(3-aminophenyl)thio}methyl]-1,3-dioxolane dihydrochloride], for which the values for the IC50 in assay [1] (setting [7]) and in assay [2] (setting [8]) were 1.5 ± 0.1 µM and 21 ± 1 µM, respectively.
Regarding `O=C(NCCCn1ccnc1)c1ccccc1` [QC-109, N-(3-Imidazol-1-yl-propyl)-benzamide], the IC50 in assay [1] (setting [3]) and in assay [2] (setting [4]) was more than 100 µM throughout.
For the compound `O=C(CCc1ccccc1)Cn1cnnn1` [QC-118, 4-Phenyl-1-tetrazol-1-yl-butan-2-one hydrochloride], the IC50 stood at 2.6 ± 0.9 µM in assay [1] (setting [7]) and 20 ± 10 µM in assay [2] (setting [4]).
As for `COC(=O)c1ncnn1CC(=O)CCc1ccccc1` [QC-136, 2-(2-Oxo-4-phenyl-butyl)-2H-[1,2,4]triazole-3-carboxylic acid methyl ester], the IC50 in assay [1] (setting [3]) and in assay [2] (setting [4]) was more than 100 µM throughout.
Consider `COC(=O)c1ncn(CC(=O)CCc2ccccc2)c1C(=O)OC` [QC-123, 1-(2-Oxo-4-phenyl-butyl)-1H-imidazole-4,5-dicarboxylic acid dimethyl ester hydrochloride], for which the IC50 in assay [1] (setting [7]) and in assay [2] (setting [8]) was more than 100 µM each time.
On to “(2R,4R)-2-[2-(4-phenyl)ethyl]-2-[(1H-imidazol-1-yl)methyl]-4-methyl-1,3-dioxolane hydrochloride [QC-35]”, for which the IC50 in assay [1] (setting [3]) was 2 ± 1 µM; in assay [2] (setting [4]), more than 43 µM.
On to `Fc1ccc(COC(CCc2ccc(Cl)cc2)Cn2ccnc2)cc1` (centres unmarked) [QC-37, 4-(4-Chlorophenyl)-2-(4-fluorobenzyloxy)-1-(1H-imidazol-1-yl)butane hydrochloride], for which the IC50 in assay [1] (setting [3]) was found to be 0.9 ± 0.3 µM; in assay [2] (setting [4]), 1 ± 0.01 µM.
With `Cc1nccn1CC(=O)CCc1ccc(Br)cc1` [QC-61, 4-(4-bromophenyl)-1-[(2-methyl)-1H-imidazol-1-yl]butan-2-one hydrochloride], the IC50 in assay [1] (setting [7]) and in assay [2] (setting [8]) was more than 100 µM each time.
`CCOC(=O)Cc1nnn(CC(=O)CCc2ccccc2)n1` [QC-178, [2-(2-Oxo-4-phenyl-butyl)-2H-tetrazol-5-yl]-acetic acid ethyl ester]: the IC50 in assay [1] (setting [9]) and in assay [2] (setting [10]) was more than 100 µM each time.
For the compound `COC(=O)c1cn(CC(=O)CCc2ccccc2)cn1` [QC-133, 1-(2-Oxo-4-phenyl-butyl)-1H-imidazole-4-carboxylic acid methyl ester], the IC50 in assay [1] (setting [3]) and in assay [2] (setting [4]) was more than 100 µM in each case.
Turning to `O=C(CCc1ccccc1)Cn1nnc2ccccc21` [QC-131, 1-Benzotriazol-1-yl-4-phenyl-butan-2-one], the IC50 in assay [1] (setting [3]) and in assay [2] (setting [4]) was more than 100 µM throughout.
Regarding `CSCC[C@@H](N)C(=O)O` [QC-69, D-methionine, reference compound], the IC50 in assay [1] (setting [3]) and in assay [2] (setting [4]) was more than 100 µM in each case.
As to `O=C(Cn1ccnc1)c1ccccc1` [QC-141, 2-Imidazol-1-yl-1-phenyl-ethanone hydrochloride], the values for the IC50 in assay [1] (setting [5]) and in assay [2] (setting [6]) were 28 ± 4 µM and more than 100 µM, respectively.
For `Nc1nc2cc(OCCCCN3CCCCC3)ccc2[nH]1` [QC-146, 5-(4-Piperidin-1-yl-butoxy)-1H-benzoimidazol-2-ylamine dihydrochloride 3/2 hydrate], the IC50 in assay [1] (setting [9]) and in assay [2] (setting [10]) was more than 100 µM throughout.
As to `O=C(Cn1ccnc1)NCc1ccccc1` [QC-63, N-benzyl-2-(1H-imidazol-1-yl)-acetamide hydrochloride], the figures for the IC50 in assay [1] (setting [3]) and in assay [2] (setting [8]) were 12 ± 5 µM and more than 100 µM, respectively.
Consider `O=C(CCc1ccccc1)Cn1cnc([N+](=O)[O-])c1` [QC-127, 1-(4-Nitro-imidazol-1-yl)-4-phenyl-butan-2-one], for which the IC50 in assay [1] (setting [3]) and in assay [2] (setting [4]) was more than 100 µM in each case.
As for `Cc1ccc(S(=O)(=O)OC[C@H]2CO[C@@](CCc3ccc(Cl)cc3)(Cn3ccnc3)O2)cc1` [QC-21, (2R,4R)-2-[2-(4-chlorophenyl)ethyl]-2-[(1H-imidazol-1-yl)methyl]-4-[(p-toluenesulfonyloxy)methyl]-1,3-dioxolane], the IC50 in assay [1] (setting [7]) was 0.8 ± 0.3 µM; in assay [2] (setting [8]), 23 ± 10 µM.
Take `CCCCn1ccnc1` [QC-122, 1-Butyl-1H-imidazole]: the IC50 in assay [1] (setting [3]) and in assay [2] (setting [4]) was more than 100 µM in each case.
With `O=C(CCc1ccccc1)Cn1ccnc1[N+](=O)[O-]` [QC-160, 1-(2-Nitro-imidazol-1-yl)-4-phenyl-butan-2-one hydrochloride], the IC50 in assay [1] (setting [5]) and in assay [2] (setting [6]) was more than 100 µM in each case.
As for `O=C(Cn1cncn1)c1ccc(Cl)cc1` [QC-158, 1-(4-Chlorophenyl)-2-[1,2,4]triazol-1-yl-ethanone hydrochloride], the IC50 in assay [1] (setting [5]) amounted to 2.2 ± 0.5 µM; in assay [2] (setting [6]), 122 ± 0.1 µM.
Consider `O=C(CCc1ccccc1)Cn1cnc([N+](=O)[O-])n1` [QC-152, 1-(3-Nitro-[1,2,4]triazol-1-yl)-4-phenyl-butan-2-one], for which the IC50 in assay [1] (setting [9]) and in assay [2] (setting [10]) was more than 100 µM each time.
With `NC[C@@H]1CO[C@@](CCc2ccccc2)(Cn2ccnc2)O1` [QC-190, {2-[2-(phenyl)-ethyl]-2-imidazol-1-ylmethyl-[1,3]dioxolan-4-yl}-methylamine dihydrochloride], the IC50 was 21 ± 3 µM in assay [1] (setting [9]) and more than 100 µM in assay [2] (setting [10]).
In the case of `O=C(Cn1ccnc1)c1ccc([N+](=O)[O-])cc1` [QC-159, 2-Imidazol-1-yl-1-(4-nitro-phenyl)-ethanone hydrochloride], the IC50 in assay [1] (setting [5]) was 2.5 ± 0.2 µM; in assay [2] (setting [6]) it was more than 100 µM.
On to `COc1cccc(-c2nnn[nH]2)c1` [QC-28, 5-(3-methoxyphenyl)-1H-tetrazole], for which the IC50 in assay [1] (setting [3]) and in assay [2] (setting [4]) was more than 100 µM throughout.
As for `Cc1ccc(S(=O)(=O)OC[C@@H]2CO[C@](CCc3ccc(Cl)cc3)(Cn3ccnc3)O2)cc1` [QC-6, (2S,4S)-2-[2-(4-chlorophenyl)ethyl]-2-[(1H-imidazol-1-yl)methyl]-4-[(p-toluenesulfonyloxy)methyl]-1,3-dioxolane], the IC50 was found to be 21 ± 2 µM in assay [1] (setting [7]) and 23 ± 6 µM in assay [2] (setting [8]).
